Source: patent US9486455B2, “Compounds for modulating TRPV3 function” (HYDRA BIOSCIENCES, INC., priority 2007, dated 2016)
Like-named read-outs stand apart in the source and are kept apart here.

What was measured:
human (h) TRPV3 = target: T1, human (h) TRPV3 (Homo sapiens, UniProt Q8NET8); assay: Whole-cell patch clamp, human TRPV3-mediated currents; type: cell-based
T1 construct: expressed in transfected cells; host or cells: HEK293/TREx, tetracycline-induced
T1 sequence (Q8NET8 1-790): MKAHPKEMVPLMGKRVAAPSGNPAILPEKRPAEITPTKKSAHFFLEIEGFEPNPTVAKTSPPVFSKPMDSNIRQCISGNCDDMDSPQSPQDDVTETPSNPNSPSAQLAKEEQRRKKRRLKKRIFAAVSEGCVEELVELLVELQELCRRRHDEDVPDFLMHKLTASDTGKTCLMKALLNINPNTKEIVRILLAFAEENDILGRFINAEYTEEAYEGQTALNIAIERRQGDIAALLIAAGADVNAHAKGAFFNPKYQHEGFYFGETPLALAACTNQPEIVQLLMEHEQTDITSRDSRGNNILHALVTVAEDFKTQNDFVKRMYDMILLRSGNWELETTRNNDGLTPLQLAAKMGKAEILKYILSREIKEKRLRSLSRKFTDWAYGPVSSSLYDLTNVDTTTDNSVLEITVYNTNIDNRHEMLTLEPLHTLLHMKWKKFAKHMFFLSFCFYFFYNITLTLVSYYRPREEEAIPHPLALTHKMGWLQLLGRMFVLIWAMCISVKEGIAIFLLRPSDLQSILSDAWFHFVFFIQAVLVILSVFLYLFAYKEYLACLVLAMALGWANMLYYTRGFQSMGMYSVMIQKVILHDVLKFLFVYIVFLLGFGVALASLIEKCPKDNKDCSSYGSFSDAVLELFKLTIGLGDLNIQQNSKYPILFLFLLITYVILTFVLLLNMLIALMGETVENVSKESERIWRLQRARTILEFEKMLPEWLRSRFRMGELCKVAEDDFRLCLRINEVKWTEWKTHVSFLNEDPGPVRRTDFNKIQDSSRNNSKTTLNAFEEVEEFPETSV
Source text: (§1) Whole-cell patch clamp experiments permit the detection of currents through the TRPV3 channel in the cell line described above. A glass electrode is brought into contact with a single cell and the membrane is then ruptured, permitting control of the voltage of the cell membrane and measurement of currents flowing across the membrane using the amplifier attached to the electrode. A perfusion system permits control of the extracellular solution, including the addition of blockers and activators of the current. The current can be activated by heating this solution to 28° C. or warmer or by addition of 20 μM 2-APB to the solution.
(§2) TRPV3 cells were induced 20-48 hours, removed from growth plates, and replated at low density (to attain good single-cell physical separation) on glass coverslips for measurement. In some cases, cells were grown in low density overnight on glass coverslips. Patch clamp recordings were made in the whole-cell mode with a holding potential of −40 mV. Every 5 seconds, a voltage ramp was applied from −120 to +100 mV, 400 ms in duration. Currents elicited were quantified at −80 mV and +80 mV. The internal solution consisted of 140 mM cesium aspartate, 10 mM EGTA, 2.27 mM MgCl2, 1.91 mM CaCl2 and 10 mM HEPES, pH to 7.2 with KOH; with 50 nM calculated free Ca^2+. External solution was Ringer's solution described above. Upon addition of 2-APB or upon heating of the extracellular solution as described above, TRPV3 current was induced only in TRPV3-expressing cells and not in parental HEK293 TREx cells. […] Removal of the stimulus caused most of the current to go away, and inhibitor addition could still inhibit this current. […]
(§3) P1 refers to the Phase 1 current for human (h) and rat (r) TRPV3, and P2 refers to the Phase 2 current for human (h) and rat (r) TRPV3.

rat (r) TRPV3 = target: T2, rat (r) TRPV3 (Rattus norvegicus, UniProt Q4QYD9); assay: Whole-cell patch clamp, rat TRPV3-mediated currents; type: cell-based
T2 construct: expressed in transfected cells
T2 sequence (Q4QYD9 1-791): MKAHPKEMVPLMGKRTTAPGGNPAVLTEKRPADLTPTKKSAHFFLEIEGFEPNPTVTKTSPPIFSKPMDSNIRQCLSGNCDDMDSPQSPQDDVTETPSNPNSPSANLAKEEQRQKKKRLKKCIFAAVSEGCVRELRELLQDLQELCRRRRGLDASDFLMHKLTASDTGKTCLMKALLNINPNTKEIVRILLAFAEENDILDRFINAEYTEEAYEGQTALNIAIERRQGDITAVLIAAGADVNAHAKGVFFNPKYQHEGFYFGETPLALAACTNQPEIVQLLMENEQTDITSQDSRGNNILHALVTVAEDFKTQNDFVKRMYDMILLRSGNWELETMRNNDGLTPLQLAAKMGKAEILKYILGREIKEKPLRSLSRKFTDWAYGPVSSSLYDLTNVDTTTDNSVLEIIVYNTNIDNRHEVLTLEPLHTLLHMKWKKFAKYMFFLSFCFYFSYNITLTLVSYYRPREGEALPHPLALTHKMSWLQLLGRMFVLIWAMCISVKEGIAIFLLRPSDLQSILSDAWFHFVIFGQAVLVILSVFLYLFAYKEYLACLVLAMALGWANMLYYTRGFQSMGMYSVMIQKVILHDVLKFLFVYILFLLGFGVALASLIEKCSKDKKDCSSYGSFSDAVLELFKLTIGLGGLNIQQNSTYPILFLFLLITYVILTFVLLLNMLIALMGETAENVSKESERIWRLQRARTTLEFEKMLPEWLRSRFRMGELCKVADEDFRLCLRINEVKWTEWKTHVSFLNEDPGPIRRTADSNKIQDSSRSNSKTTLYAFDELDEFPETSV
Source text: as §1, §2, §3

[1] = Phase 1 inward current, read-out: P1 In (h)
[2] = Phase 2 inward current, read-out: P2 In (h)
[3] = Phase 1 outward current, read-out: P1 Out (h)
[4] = Phase 2 outward current, read-out: P2 Out (h)
[5] = Phase 1 inward current, read-out: P1 In (r)
[6] = Phase 1 outward current, read-out: P1 Out (r)
[7] = Phase 2 inward current, read-out: P2 In (r)
[8] = Phase 2 outward current, read-out: P2 Out (r)
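Further: compounds tested at concentrations up to 30 µM.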

| SMILES | IC50 (human (h) TRPV3; [1]) | IC50 (human (h) TRPV3; [2]) | IC50 (human (h) TRPV3; [3]) | IC50 (human (h) TRPV3; [4]) | IC50 (rat (r) TRPV3; [5]) | IC50 (rat (r) TRPV3; [6]) | IC50 (rat (r) TRPV3; [7]) | IC50 (rat (r) TRPV3; [8]) |
| --- | --- | --- | --- | --- | --- | --- | --- | --- |
| COc1cccc(/C=C/c2nc3ccccc3c(=O)n2-c2c(C)cc(OCCO)cc2C)c1O [Compound 1] | ≤ 1000 nM | ≤ 1000 nM | – | – | – | – | – | – |
| COc1cccc(/C=C(\C)c2nc3ccccc3c(=O)n2-c2ccccc2C)c1O [Compound 2] | ≤ 5000 nM | ≤ 5000 nM | – | – | – | – | – | – |
| Cc1ccccc1-n1c(-c2ccoc2)nc2ccccc2c1=O [Compound 4] | ≤ 10000 nM | ≤ 10000 nM | – | – | – | – | – | – |
| Cc1ccccc1-n1c(/C=C/c2nnn[nH]2)nc2ccccc2c1=O [Compound 5] | > 10000 nM | > 10000 nM | – | – | – | – | – | – |
| Cc1cccc(C)c1-n1c(/C=C/c2cccc3cn[nH]c23)nc2cnccc2c1=O [Compound 10] | ≤ 10000 nM | – | ≤ 10000 nM | – | – | – | – | – |
| COc1ccccc1-n1c(/C=C/c2cccc(OC)c2O)nc2cnccc2c1=O [Compound 13] | ≤ 10000 nM | – | ≤ 10000 nM | – | – | – | – | – |
| COc1cccc(/C=C/c2nc3cnccc3c(=O)n2-c2c(C)cccc2Cl)c1O [Compound 16] | ≤ 500 nM | ≤ 500 nM | ≤ 500 nM | ≤ 500 nM | ≤ 500 nM | ≤ 500 nM | ≤ 500 nM | ≤ 500 nM |
| CCOc1cccc(/C=C/c2nc3cnccc3c(=O)n2-c2c(F)cccc2F)c1O [Compound 18] | ≤ 500 nM | ≤ 500 nM | ≤ 500 nM | ≤ 10000 nM | – | – | – | – |
| Cc1cccc(C)c1-n1c(/C=C/c2cc(OC(F)(F)F)ccc2O)nc2cnccc2c1=O [Compound 21] | ≤ 10000 nM | – | ≤ 10000 nM | – | – | – | – | – |
| Cc1cccc(C)c1-n1c(/C=C/c2cc(Cl)cnc2O)nc2cnccc2c1=O [Compound 22] | ≤ 10000 nM | – | ≤ 10000 nM | – | – | – | – | – |
| COc1cccc(/C=C/c2nc3cnccc3c(=O)n2-c2c(C)cccc2C)n1 [Compound 24] | ≤ 10000 nM | – | ≤ 10000 nM | – | – | – | – | – |
| Cc1cccc(C)c1-n1c(/C=C/c2cnccc2O)nc2cnccc2c1=O [Compound 29] | ≤ 10000 nM | – | ≤ 10000 nM | – | – | – | – | – |
| CCOc1cccc(C=Cc2nc3cnccc3c(=O)n2-c2ccccc2C)c1O [Compound 31] | ≤ 500 nM | ≤ 500 nM | ≤ 500 nM | ≤ 500 nM | ≤ 500 nM | ≤ 500 nM | – | – |
| COc1ccnc(/C=C/c2nc3ccccc3c(=O)n2-c2c(C)cccc2C)c1O [Compound 39] | ≤ 10000 nM | ≤ 10000 nM | ≤ 10000 nM | ≤ 10000 nM | – | – | – | – |
| COc1cccc(NC(=O)Nc2nc3ccccc3c(=O)n2-c2c(C)cccc2C)c1O [Compound 46] | ≤ 5000 nM | – | ≤ 5000 nM | – | – | – | – | – |
| COc1cccc(/C=C/c2nc3ccccc3c(=O)n2-c2c(C)cccc2OCCO)c1O [Compound 48] | ≤ 500 nM | – | ≤ 1000 nM | ≤ 1000 nM | – | – | – | – |
| COc1ccccc1-n1c(/C=C/c2cccc(OC)c2O)nc2ccccc2c1=O [Compound 52] | ≤ 500 nM | ≤ 500 nM | ≤ 500 nM | ≤ 500 nM | – | – | – | – |
| COc1cccc(C=Cc2nc3ccccc3c(=O)n2-c2c(C)cccc2C)c1OP(=O)(O)O [Compound 53] | ≤ 500 nM | ≤ 500 nM | ≤ 500 nM | ≤ 500 nM | – | – | – | – |
| COc1cccc(-n2c(/C=C/c3cccc(OC)c3O)nc3ccccc3c2=O)c1 [Compound 54] | ≤ 500 nM | ≤ 500 nM | ≤ 500 nM | ≤ 500 nM | – | – | – | – |

Next, values leading:

| IC50 (human (h) TRPV3; [1]) | IC50 (human (h) TRPV3; [2]) | IC50 (human (h) TRPV3; [3]) | IC50 (human (h) TRPV3; [4]) | IC50 (rat (r) TRPV3; [5]) | IC50 (rat (r) TRPV3; [6]) | IC50 (rat (r) TRPV3; [7]) | IC50 (rat (r) TRPV3; [8]) | SMILES |
| --- | --- | --- | --- | --- | --- | --- | --- | --- |
| ≤ 10000 nM | ≤ 5000 nM | – | – | – | – | – | – | COc1cccc(/C=C/c2nc3ccccc3c(=O)n2-c2c(C)cc(OCCN(C)C)cc2C)c1O [Compound 3] |
| ≤ 500 nM | ≤ 500 nM | ≤ 500 nM | ≤ 500 nM | ≤ 500 nM | ≤ 500 nM | – | – | Cc1cccc(C)c1-n1c(/C=C/c2cccc(OC(F)(F)F)c2O)nc2cnccc2c1=O [Compound 12] |
| ≤ 500 nM | ≤ 500 nM | ≤ 500 nM | ≤ 500 nM | ≤ 500 nM | ≤ 500 nM | ≤ 500 nM | ≤ 1000 nM | COc1cccc(/C=C/c2nc3cnccc3c(=O)n2-c2c(C)cccc2OC)c1O [Compound 14] |
| ≤ 500 nM | ≤ 500 nM | ≤ 500 nM | ≤ 500 nM | ≤ 500 nM | ≤ 500 nM | ≤ 500 nM | ≤ 500 nM | COc1nccc(/C=C/c2nc3cnccc3c(=O)n2-c2c(C)cccc2C)c1O [Compound 15] |
| ≤ 10000 nM | ≤ 10000 nM | ≤ 10000 nM | ≤ 10000 nM | – | – | – | – | COc1cccc(-n2c(/C=C/c3cccc(OC)c3O)nc3cnccc3c2=O)c1C [Compound 17] |
| ≤ 5000 nM | – | ≤ 10000 nM | – | – | – | – | – | Cc1cccc(C)c1-n1c(/C=C/c2cc(Cl)ccc2O)nc2cnccc2c1=O [Compound 20] |
| ≤ 10000 nM | – | ≤ 10000 nM | – | – | – | – | – | Cc1ccc(O)c(/C=C/c2nc3cnccc3c(=O)n2-c2c(C)cccc2C)n1 [Compound 23] |
| ≤ 10000 nM | – | ≤ 5000 nM | – | – | – | – | – | COc1cccc(/C=C/c2nc3cnccc3c(=O)n2-c2ccccc2C#N)c1O [Compound 25] |
| ≤ 10000 nM | – | ≤ 5000 nM | – | – | – | – | – | COc1cc(/C=C/c2nc3cnccc3c(=O)n2-c2c(C)cccc2C)ccn1 [Compound 26] |
